Consider six molecules from patent US10633337B2, “Crystal forms of a 9-aminomethyl substituted tetracycline compound and a preparation method thereof” (KBP Biosciences Co., Ltd., priority 2016, dated 2020).

What all share (format): physicochemical
Data set [1] can be described thus: Assay 2: stability (influencing factor tests) of crystal form II and crystal form IV; content by HPLC. The conditions noted are these: for stability (conclusion in words): high temperature, high humidity and illumination. As to the method:
Assay 2: Stability for Crystal Form II and Crystal Form IV of the Present Compound
Tested sample: crystal form II and crystal form IV of the compound represented by formula (1) were prepared according to Examples;
(§1) Test Conditions for Investigating the Influencing Factors:
High temperature tests: crystal form II and crystal form IV of the compound represented by formula (1) were laid on a dry and clean watch glass, and kept at 60° C.±5° C. for 15 days. Samples were taken respectively on Day 5 and Day 15. The content and the purity of the compound represented by formula (1) were measured, and compared with those of the sample taken on Day 0.
High humidity test: crystal form II and crystal form IV of the compound represented by formula (1) were laid on a dry and clean watch glass, and kept at 25° C.±2° C., RH92.5%±5%, 25° C.±2° C., RH75%±5%, 40° C.±2° C., RH75%±5% for 15 days. Samples were taken respectively on Day 5 and Day 15. The content and the purity of the compound represented by formula (1) were measured, and compared with those of the sample taken on Day 0.
Illumination test: crystal form II and crystal form IV of the compound represented by formula (1) were laid on a dry and clean watch glass, and kept at an illuminance of 4500 Lx±500 Lx in an illumination box for 15 days. Samples were taken respectively on Day 5 and Day 15. The content and the purity of the compound represented by formula (1) were measured, and compared with those of the sample taken on Day 0.
(§2) Content: it was measured by using an external standard method in accordance with the High Performance Liquid Chromatography in Chinese Pharmacopoeia, Appendix V D, Edition 2010.
(§3) Purity: it was measured by using an area normalization method in accordance with the High Performance Liquid Chromatography in Chinese Pharmacopoeia, Appendix V D, Edition 2010.

A short description of data set [2]: Assay 1: stability (influencing factor tests: high temperature, high humidity, illumination) of amorphous form and crystal forms I, II, VII; content and purity by HPLC. Particulars: for stability (conclusion in words): high temperature, high humidity and illumination. As to the method:
Assay 1: Stability for Amorphous Form and Crystal Forms of the Present Compound
Tested sample: amorphous form, crystal form I, crystal form II, and crystal form VII of the compound represented by formula (1) were prepared according to Examples;
as §1
High temperature tests: amorphous form, crystal form I, crystal form II, and crystal form VII of the compound represented by formula (1) were laid on a dry and clean watch glass, and kept at 60° C.±5° C. for 14 days. Samples were taken respectively on Day 7 and Day 14. The content and the purity of the compound represented by formula (1) were measured, and compared with those of the sample taken on Day 0.
High humidity test: amorphous form, crystal form I, crystal form II, and crystal form VII of the compound represented by formula (1) were laid on a dry and clean watch glass, and kept at 25° C.±2° C., RH75%±5%, 40° C.±2° C., RH75%±5% for 14 days. Samples were taken respectively on Day 7 and Day 14. The content and the purity of the compound represented by formula (1) were measured, and compared with those of the sample taken on Day 0.
Illumination test: amorphous form, crystal form I, crystal form II, and crystal form VII of the compound represented by formula (1) were laid on a dry and clean watch glass, and kept at an illuminance of 4500 Lx±500 Lx in an illumination box for 14 days. Samples were taken respectively on Day 7 and Day 14. The content and the purity of the compound represented by formula (1) were measured, and compared with those of the sample taken on Day 0.
as §2, §3

Data set [3] in a line: Investigation of the stability of crystal form III at high humidity. As to the method:
It is also found in the study that not all of crystal forms I, II, III, IV, V, VI, VII and VIII of the compound represented by formula (1) have better stability than the amorphous form. Specifically, in the investigation of the stability of crystal form III, the content of the compound is reduced by about 10% after being placed in a high humidity condition of 40° C./75%±5% RH for 14 days.
The data for investigating the stability was mentioned as above.

Where [4] appears, read: Day 0 (start of stability test).
The mark [5] stands for this setting: High temperature 60° C., Day 14.
Setting [6] is: Illumination 45001x ± 5001x, Day 14.

For `CN(C)c1cc(CN2CC3CC3C2)c(O)c2c1C[C@H]1C[C@H]3[C@H](N(C)C)C(O)=C(C(N)=O)C(=O)[C@@]3(O)C(O)=C1C2=O` (single isomer, unassigned) [Crystal form II], the Content in data set [1] (25° C./RH 75% ± 5%, Day 15) was determined as 98.3%; in data set [1] (25° C./RH 92.5% ± 5%, Day 15), 96.7%; in data set [1] (40° C./RH 75% ± 5%, Day 15), 98.0%; in data set [1] (60° C., Day 15) it was 97.0%; in data set [1] (4500 Lx ± 500 Lx, Day 15) it was 97.8%; in data set [1] (setting [4]) it was 98.4%. Further, the Content in data set [2] (25° C./75% ± 5% RH, Day 7) came out at 95.9%; in data set [2] (25° C./75% ± 5% RH, Day 14), 96.1%; in data set [2] (40° C./75% ± 5% RH, Day 7), 96.5%; in data set [2] (40° C./75% ± 5% RH, Day 14) it was 96.1%; in data set [2] (setting [4]), 94.5%; in data set [2] (High temperature 60° C., Day 7), 95.8%. The figures for the Content in data set [2] (setting [5]) and in data set [2] (setting [6]) were 96.0% and 96.1%, respectively. The “stability (conclusion in words)” value is given as “higher stability than crystal form IV” in data set [1] and “relatively high stability” in data set [2]. Also, the Purity stood at 96.3% in data set [2] (25° C./75% ± 5% RH, Day 7); 96.2% in data set [2] (25° C./75% ± 5% RH, Day 14); 96.2% in data set [2] (40° C./75% ± 5% RH, Day 7); 96.1% in data set [2] (40° C./75% ± 5% RH, Day 14); 96.4% in data set [2] (setting [4]); 96.1% in data set [2] (High temperature 60° C., Day 7). Also, the Purity in data set [2] (setting [5]) was determined as 96.0%; in data set [2] (setting [6]) it was 96.2%.

Regarding `CN(C)c1cc(CN2CC3CC3C2)c(O)c2c1C[C@H]1C[C@H]3[C@H](N(C)C)C(O)=C(C(N)=O)C(=O)[C@@]3(O)C(O)=C1C2=O` (single isomer, unassigned) [Crystal form IV], the Content in data set [1] (25° C./RH 75% ± 5%, Day 15) is 93.1%; in data set [1] (25° C./RH 92.5% ± 5%, Day 15) it was 90.3%; in data set [1] (40° C./RH 75% ± 5%, Day 15), 74.6%; in data set [1] (60° C., Day 15) it was 88.6%; in data set [1] (4500 Lx ± 500 Lx, Day 15) it was 74.6%; in data set [1] (setting [4]), 97.0%. Besides, the figures for the reduction of content result in data set [1] (high temperature of 60° C. for 15 days) and in data set [1] (illumination 4500 Lx±500 Lx for 15 days) were “about 10%” and 23.1%, respectively. Besides, the “stability (conclusion in words)” value in data set [1] is given as “changed very much”. The “stability compared with amorphous form” value in data set [1] (illumination condition or high temperature condition) is reported as “worse stability than the amorphous form”.

For `CN(C)c1cc(CN2CC3CC3C2)c(O)c2c1C[C@H]1C[C@H]3[C@H](N(C)C)C(O)=C(C(N)=O)C(=O)[C@@]3(O)C(O)=C1C2=O` (stereo partly drawn) [Amorphous form, (4S,4aS,5aR,12aS)-9-(3-azabicyclo[3.1.0]hexan-3-ylmethyl)-4,7-bis(dimethylamino)-3,10,12,12a-tetrahydroxy-1,11-dioxo-1,4,4a,5,5a,6,11,12a-octahydrotetracene-2-carboxamide], the Content in data set [2] (25° C./75% ± 5% RH, Day 7) is given as 98.7%; in data set [2] (25° C./75% ± 5% RH, Day 14) it was 93.3%; in data set [2] (40° C./75% ± 5% RH, Day 7) it was 94.7%; in data set [2] (40° C./75% ± 5% RH, Day 14) it was 89.6%; in data set [2] (setting [4]), 97.1%; in data set [2] (High temperature 60° C., Day 7), 94.5%. For the same molecule, the Content in data set [2] (setting [5]) is 90.5%; in data set [2] (setting [6]), 85.0%. The Purity in data set [2] (25° C./75% ± 5% RH, Day 7) amounted to 97.1%; in data set [2] (25° C./75% ± 5% RH, Day 14) it was 96.7%; in data set [2] (40° C./75% ± 5% RH, Day 7), 94.9%; in data set [2] (40° C./75% ± 5% RH, Day 14) it was 92.9%; in data set [2] (setting [4]), 98.0%; in data set [2] (High temperature 60° C., Day 7), 95.8%. Also, the figures for the Purity in data set [2] (setting [5]) and in data set [2] (setting [6]) were 94.3% and 92.9%, respectively. Moreover, the reduction of content turned out to be 6.6% in data set [2] (after 14 days at a high temperature of 60° C.), 7.5% in data set [2] (after 14 days at high humidity 40° C./75%±5% RH) and 12.1% in data set [2] (after 14 days under illumination of 4500 lx±500 lx). In addition, the “stability (conclusion in words)” value in data set [2] is listed as “unstable”.

As for `CN(C)c1cc(CN2CC3CC3C2)c(O)c2c1C[C@H]1C[C@H]3[C@H](N(C)C)C(O)=C(C(N)=O)C(=O)[C@@]3(O)C(O)=C1C2=O` (stereo partly drawn) [Crystal form I, (4S,4aS,5aR,12aS)-9-(3-azabicyclo[3.1.0]hexan-3-ylmethyl)-4,7-bis(dimethylamino)-3,10,12,12a-tetrahydroxy-1,11-dioxo-1,4,4a,5,5a,6,11,12a-octahydrotetracene-2-carboxamide], the Content in data set [2] (25° C./75% ± 5% RH, Day 7) worked out at 97.2%; in data set [2] (25° C./75% ± 5% RH, Day 14), 98.2%; in data set [2] (40° C./75% ± 5% RH, Day 7), 97.4%; in data set [2] (40° C./75% ± 5% RH, Day 14), 97.5%; in data set [2] (setting [4]) it was 97.0%; in data set [2] (High temperature 60° C., Day 7) it was 97.7%. Moreover, the Content in data set [2] (setting [5]) was determined as 97.3%; in data set [2] (setting [6]), 97.8%. For the same molecule, the Purity in data set [2] (25° C./75% ± 5% RH, Day 7) was determined as 98.1%; in data set [2] (25° C./75% ± 5% RH, Day 14), 98.1%; in data set [2] (40° C./75% ± 5% RH, Day 7) it was 98.0%; in data set [2] (40° C./75% ± 5% RH, Day 14), 97.8%; in data set [2] (setting [4]), 98.2%; in data set [2] (High temperature 60° C., Day 7), 97.9%. Moreover, the Purity in data set [2] (setting [5]) was 97.7%; in data set [2] (setting [6]) it was 98.1%. In addition, the “stability (conclusion in words)” value in data set [2] is listed as “relatively high stability”.

For `CN(C)c1cc(CN2CC3CC3C2)c(O)c2c1C[C@H]1C[C@H]3[C@H](N(C)C)C(O)=C(C(N)=O)C(=O)[C@@]3(O)C(O)=C1C2=O` (stereo partly drawn) [Crystal form III, (4S,4aS,5aR,12aS)-9-(3-azabicyclo[3.1.0]hexan-3-ylmethyl)-4,7-bis(dimethylamino)-3,10,12,12a-tetrahydroxy-1,11-dioxo-1,4,4a,5,5a,6,11,12a-octahydrotetracene-2-carboxamide], the reduction of content entry in data set [3] (high humidity 40° C./75%±5% RH for 14 days) is “about 10%”. For the same molecule, the “stability compared with amorphous form” value in data set [3] (high humidity condition) is reported as “worse stability than the amorphous form”.

For the molecule `CN(C)c1cc(CN2CC3CC3C2)c(O)c2c1C[C@H]1C[C@H]3[C@H](N(C)C)C(O)=C(C(N)=O)C(=O)[C@@]3(O)C(O)=C1C2=O` (stereo partly drawn) [Crystal form VII, (4S,4aS,5aR,12aS)-9-(3-azabicyclo[3.1.0]hexan-3-ylmethyl)-4,7-bis(dimethylamino)-3,10,12,12a-tetrahydroxy-1,11-dioxo-1,4,4a,5,5a,6,11,12a-octahydrotetracene-2-carboxamide], the Content is on record as 96.1% in data set [2] (25° C./75% ± 5% RH, Day 7); 95.8% in data set [2] (25° C./75% ± 5% RH, Day 14); 94.6% in data set [2] (40° C./75% ± 5% RH, Day 7); 94.5% in data set [2] (40° C./75% ± 5% RH, Day 14); 95.8% in data set [2] (setting [4]); 95.2% in data set [2] (High temperature 60° C., Day 7). Also, the Content in data set [2] (setting [5]) amounted to 93.6%; in data set [2] (setting [6]) it was 95.7%. Also, the Purity is on record as 97.1% in data set [2] (25° C./75% ± 5% RH, Day 7); 97.2% in data set [2] (25° C./75% ± 5% RH, Day 14); 96.4% in data set [2] (40° C./75% ± 5% RH, Day 7); 95.7% in data set [2] (40° C./75% ± 5% RH, Day 14); 97.4% in data set [2] (setting [4]); 96.8% in data set [2] (High temperature 60° C., Day 7). Besides, the Purity was found to be 96.2% in data set [2] (setting [5]) and 96.6% in data set [2] (setting [6]). In addition, the “stability (conclusion in words)” value in data set [2] was “relatively high stability”.
